These results are taken from article PMC3816687, “Relationships between Cargo, Cell Penetrating Peptidesand Cell Type for Uptake of Non-Covalent Complexes into Live Cells” (Pharmaceuticals, 2013).

One data set concerns Jurkat cells. Nature of the data set: Internalization of β-galactosidase into Jurkat cells, X-gal staining. The format is cell-based, Human. The settings on record: complexes of β-galactosidase and CPP, ratio 1:10, X-Gal staining. As for the experimental part: (§1) A detailed description of formation of complexes with peptides and proteins is given in a previous publication. Briefly, cargo proteins (ATTO488-BSA, MW ≈ 68 kDa, β-galactosidase, MW ≈ 540 kDa) and the calculated volume of stock solution of CPPs or JBS-Proteoducin were dissolved separately in 100 µL of 1× PBS). Both solutions were thoroughly mixed by repeated pipetting. The mixture was incubated for 30 minutes at 37 °C to achieve complex formation. The molar ratio of cargo to CPPs was usually calculated to 1:10. For internalization of higher amounts of cargo, both the amount of protein and stock solution of CPP or cocktail, respectively, were multiplied. Complexes of the enzyme β-galactosidase and JBS-Proteoducin were formed from 1 µg β-galactosidase and 1 µL stock solution of JBS-Proteoducin under the described conditions.
The thoroughly washed cell pellet was suspended in 200 µL of complex solution followed by 400 µL of serum free medium, gently mixed and transferred into 24-well plates. […] After addition of 1.4 mL of complete culture medium incubation was continued at 37 °C for approx. 2 h in a humidified atmosphere containing 5% CO2. The cells were washed by spinning down twice with PBS, three times with glycine buffer (pH 3.0) and twice with PBS.
(§2) Staining of the cells took place in multiwell-plates. Jurkat and Leishmania cells were stained according to the instructions described in [24], using a staining solution containing potassium ferrocyanide, potassium ferricyanide and X-gal. Leishmania cells were stained after finishing the above described transduction protocol. For Jurkat cells the staining was performed after transferring cells from spinning tubes used in the last washing step to 24-well plates. Cells were incubated in staining solution overnight and directly observed in a microscope using a 400-fold magnification.

Data set [1] concerns Leishmania tarentolae. Nature of the data set: Transduction of ATTO488-BSA into Leishmania tarentolae. The format is cell-based. The following applies: molar ratio 1:10, Leishmania tarentolae, fluorescence plate reader after cell lysis. As to the method: as §1, with “Complexes of the enzyme β-galactosidase and JBS-Proteoducin were formed from 1 µg β-galactosidase and 1 µL stock solution of JBS-Proteoducin under the described conditions.” left out
For confocal microscopy of fixed and living cells, a LSM 710 laser scanning confocal microscope was used as previously described. […] To avoid bleed-through effects in multi-fluorescence staining experiments, each dye was scanned independently in a multitracking mode. […]
Quantitative fluorescence measurements on internalized fluorescent nucleotide and SDS-PAGE with fluorescent proteins allow the calculation of the internalized amount of cargo. […] The mean volume was calculated to 1.2 × 10^−5 µL. […] Uptake of ATTO488-BSA into Leishmania tarentolae was estimated with a fluorescence plate reader after cell lysis. The volume of Leishmania tarentolae was calculated to 2.0 × 10^−7 µL.

Data set [2] concerns Leishmania tarentolae. The following applies: non-covalent complexes; cited from earlier work. The text has this:
Formation of non-covalent complexes between cargo and CPP occurs by optimized interaction of the CPP with the surface of the cargo. These complexes are stabilized by ionic, polar, π-electron-cation, or hydrophobic interactions, hydrogen bonds and common interactions between molecules. Thus, for the same cell type different cargoes show different rank orders for CPPs.

In data set [3] the test system is HeLa cells. The following applies: non-covalent complexes; cited from earlier work. As for the experimental part:
Table 4 Intracellular amounts and concentrations. Internalized amounts are calculated from fluorescence intensities in the homogenate directly or after separation by SDS-PAGE. In the case of nucleoside triphosphates quantification was performed by fluorescence spectrometry. Estimation of cell volumes allows the calculation of intracellular concentrations. […] The rank order for the uptake of β-galactosidase into HeLa cells: JBS-Proteoducin > MPGα ≥ MPGβ > CAD-2 >> CPPP-2 // HIV-TAT = penetratin provides evidence for different requirements of enzyme and nucleotide for co ...

In data set [4] the test system is Leishmania tarentolae. Nature of the data set: Cytotoxicity test for Leishmania tarentolae (morphology and motility). The format is cell-based. As for the experimental part:
Leishmania cells were cultivated as described previously, resuspended in PBS and treated with increasing concentrations of cocktails and CPPs for 1 h. Cytotoxic effects were monitored by changes in morphology and motility observed using a microscope at 400-fold magnification.

In data set [5] the test system is HeLa cells. The following applies: non-covalent complexes, X-Gal staining; cited from earlier work. An excerpt:
HeLa cells: As shown in our preceding publication, the CPP cocktail JBS-Proteoducin can internalize enzymatic active β-galactosidase into all cell types investigated, including difficult to transfect Kasumi-1 cells. The active enzyme was transported not only into all types of cells but all of the observed cells are also positively stained using the β-galactosidase substrate 5-bromo-4-chloro-indolyl-β-D-galactopyranoside (X-Gal).

Data set [6] deals with Leishmania tarentolae. Nature of the data set: Internalization of β-galactosidase into Leishmania tarentolae, X-gal staining. The class given is cell-based. The settings on record: molar ratios 1:5, 1:10, 1:20 of cargo and CPP. As to the method: as §1
For transduction cells in an early stage of development were used. To this end stock cultures were diluted 1:10 the day before the experiment into 10 mL of culture medium in 25 cm^2-ventilated tissue culture flasks and were incubated overnight in the dark at 26 °C for optimal proliferation. Cell suspensions with an OD of 1.2 (ca. 4 × 10^7 cells/mL) were used for transduction. The cells were thoroughly washed twice with PBS (5 mL each) by centrifugation (2,000 × g, 3 min). Pellets were resuspended in the original volume of PBS containing 0.1% BSA and aliquoted into 24-well plates. Four hundred µL of cell suspension were used per experiment. Two hundred µL of the complex solutions were added to these cells and mixtures were incubated for 1 h at 26 °C in the dark with gentle agitation. Successively, 1 mL of complete growth medium (LEXSY BHI) was added per sample and incubation was continued at 26 °C for 2 h. Cells were washed twice with PBS (2 mL each) by centrifugation (2,000 × g, 3 min) prior to analysis of transduction.
as §2

The subject of a further data set is COS-7 cells. The experiment in a line: Degradation of CPPs by secreted and surface bound proteases of COS-7 cells. The settings on record: 60 min incubation with 0.3 × 10^6 intact cells per well, PBS, 37 °C, 5% CO2, RP18 HPLC, 220 nm. As for the experimental part:
In a 6-well-plate with 0.3 × 10^6 cells per well the different cell types were cultivated overnight under optimized conditions. Then medium was removed by aspiration (adherent cell) or centrifugation (suspension cells) and washed cells were incubated with CPPs in phosphate buffer solution (PBS). Incubation was performed under the same conditions as the transduction of complexes with the cargo for 1 h at 37 °C in a humidified atmosphere containing 5% CO2. After 15, 30, 45 and 60 min samples of 200 µL were taken and the proteolytic reaction was stopped by addition of 50 µL 37 perc. HCl. After freezing and lyophilization samples were analyzed by analytical high performance liquid chromatography (HPLC), using a RP18 column (Vydac 218TP). In case of MPGβ, for elution a gradient was used from 10% acetonitrile and 90% water, both containing 0.1% trifluoroacetic acid to 60% acetonitrile and 40% water in 50 min. […] The flow rate was 1.0 ml/min and detection was performed at 220 nm.

Setting [7] is: 1 h in PBS with increasing concentrations, changes in morphology and motility, microscope 400-fold.

Like-named read-outs stand apart in the source and are kept apart here. *1 amine or outer side, *2 acyl side, *3 side chain or, on linkers, in order; H or OH if unused. Cysteamide = C(CS[*:3])N[*:1]

Turning to “Ac-GALFLAFLAAALSLMGLWSQPKKKRKV-NH-CH2-CH2-SH (Ac-GALFLAFLAAALSLMGLWSQPKKKRKV-Cysteamide; SMILES CSCC[C@H](NC(=O)[C@H](CC(C)C)NC(=O)[C@H](CO)NC(=O)[C@H](CC(C)C)NC(=O)[C@H](C)NC(=O)[C@H](C)NC(=O)[C@H](C)NC(=O)[C@H](CC(C)C)NC(=O)[C@H](Cc1ccccc1)NC(=O)[C@H](C)NC(=O)[C@H](CC(C)C)NC(=O)[C@H](Cc1ccccc1)NC(=O)[C@H](CC(C)C)NC(=O)[C@H](C)NC(=O)CNC(C)=O)C(=O)NCC(=O)N[C@@H](CC(C)C)C(=O)N[C@@H](Cc1c[nH]c2ccccc12)C(=O)N[C@@H](CO)C(=O)N[C@@H](CCC(N)=O)C(=O)N1CCC[C@H]1C(=O)N[C@@H](CCCCN)C(=O)N[C@@H](CCCCN)C(=O)N[C@@H](CCCCN)C(=O)N[C@@H](CCCNC(=N)N)C(=O)N[C@@H](CCCCN)C(=O)N[C@H](C(=O)NCCS)C(C)C) [MPGα, MPG cell penetrating peptide, 5 positive charges]”, the “rank order for internalization of β-galactosidase into Jurkat cells” value in the data set with Jurkat cells was “JBS-Proteoducin > MPGβ > MPGα > CAD-2 >> CPPP-2”. Also, the “Internalized amount, amol per cell” value in the data set with Leishmania tarentolae [1] (cargo ATTO488-BSA 1 µg + CPP) is 0.8 x 10^−2 amol per cell; in the data set with Leishmania tarentolae [1] (cargo ATTO488-BSA 10 µg + CPP) it was 3.3 x 10^−2 amol per cell. Besides, the “rank order for transport of ATTO488-labeled BSA into Leishmania” value with Leishmania tarentolae [2] was “MPGα >> CAD-2 > histone”. Moreover, in the data set on HeLa cells [3], the “rank order of uptake efficiency of ATTO488-dUTP into HeLa cells” value (“rank order … of ATTO488-dUTP into HeLa cells” for short) is recorded as “JBS-Nucleoducin > CAD-2 > MPGα ≥ MPGβ > penetratin >> CPP-2”. Further, in the data set with Leishmania tarentolae [4], the “Cytotoxicity in Leishmania tarentolae” value was at most 5 µM. Besides, the “rank order for internalization of β-galactosidase into HeLa cells” value in the data set on HeLa cells [5] is recorded as “JBS-Proteoducin > MPGα ≥ MPGβ > CAD-2 >> CPPP-2 // HIV-TAT, penetratin”. Moreover, in the data set on Leishmania tarentolae [6], the “rank order for uptake efficiency of β-galactosidase into Leishmania tarentolae” value (shortened to “rank order for uptake efficiency”) was “CAD-2 > MPGα > Histone > MPGβ >> penetratin ≥ HIV-TAT ≥ CPPP-2”.

Turning to “YGRKKRRQRRR-amide [HIV-TAT (47-57), amphiphilic-cationic cell penetrating peptide, 9 positive charges]”, the “rank order … of ATTO488-dUTP into HeLa cells” value with HeLa cells [3] was “not able to transport”. The “Cytotoxicity in Leishmania tarentolae” value in the data set on Leishmania tarentolae [4] (setting [7]) is recorded as at least 30 µM. In the data set on HeLa cells [5], the “rank order for internalization of β-galactosidase into HeLa cells” value is “JBS-Proteoducin > MPGα ≥ MPGβ > CAD-2 >> CPPP-2 // HIV-TAT, penetratin”. Also, the “rank order for uptake efficiency” value with Leishmania tarentolae [6] is “CAD-2 > MPGα > Histone > MPGβ >> penetratin ≥ HIV-TAT ≥ CPPP-2”.

In the case of “Ac-GALFLGFLGAAGSTMGAWSQPKKKRKV-NH-CH2-CH2-SH [MPGβ, MPG cell penetrating peptide, 5 positive charges]”, the “rank order for internalization of β-galactosidase into Jurkat cells” value in the data set on Jurkat cells was “JBS-Proteoducin > MPGβ > MPGα > CAD-2 >> CPPP-2”. For the same substance, the “stability against proteolytic cleavage by COS-7 cells (HPLC peak)” value with COS-7 cells was “strongly reduced”. Also, the “rank order … of ATTO488-dUTP into HeLa cells” value with HeLa cells [3] is on record as “JBS-Nucleoducin > CAD-2 > MPGα ≥ MPGβ > penetratin >> CPP-2”. Besides, the “Cytotoxicity in Leishmania tarentolae” value in the data set on Leishmania tarentolae [4] (setting [7]) is reported as at most 5 µM. In addition, the “sensitivity of Leishmania tarentolae cells” value in the data set on Leishmania tarentolae [4] (concentrations of 10 µM, morphology and motility) is listed as “very sensitive”. For the same substance, the “rank order for internalization of β-galactosidase into HeLa cells” value in the data set with HeLa cells [5] was “JBS-Proteoducin > MPGα ≥ MPGβ > CAD-2 >> CPPP-2 // HIV-TAT, penetratin”. The “rank order for uptake efficiency” value in the data set on Leishmania tarentolae [6] is “CAD-2 > MPGα > Histone > MPGβ >> penetratin ≥ HIV-TAT ≥ CPPP-2”.

For “KLPVM [CPPP-2, cell penetrating pentapeptide, 2 positive charges]”, the “rank order for internalization of β-galactosidase into Jurkat cells” value in the data set on Jurkat cells was “JBS-Proteoducin > MPGβ > MPGα > CAD-2 >> CPPP-2”. The “rank order … of ATTO488-dUTP into HeLa cells” value with HeLa cells [3] is reported as “JBS-Nucleoducin > CAD-2 > MPGα ≥ MPGβ > penetratin >> CPP-2”. Besides, the “Cytotoxicity in Leishmania tarentolae” value with Leishmania tarentolae [4] (setting [7]) was at least 100 µM. Moreover, in the data set on HeLa cells [5], the “rank order for internalization of β-galactosidase into HeLa cells” value is reported as “JBS-Proteoducin > MPGα ≥ MPGβ > CAD-2 >> CPPP-2 // HIV-TAT, penetratin”. Moreover, the “rank order for uptake efficiency” value in the data set on Leishmania tarentolae [6] is recorded as “CAD-2 > MPGα > Histone > MPGβ >> penetratin ≥ HIV-TAT ≥ CPPP-2”.
